From patent US20110144205A1, “Blood Glutathione as a Biomarker for Screening Asymptomatic Patients at Risk for Heart Failure” (INSERM (Institut National de la Recherche Medicale), priority 2008, published 2011)

Key:
[1] = test system: postoperative atrial fibrillation; conditions: cited from earlier work
[2] = test system: heart-failing hypertensive rats; conditions: oral NAC treatment; cited from earlier work
[3] = test system: mouse model of human hypertrophic cardiomyopathy; conditions: oral NAC treatment; cited from earlier work
[4] = test system: cardiomyopathic mice with missense LMNA mutation; conditions: oral NAC treatment; cited from earlier work
[5] = test system: cardiomyopathic mice with missense LMNA mutation; assay: Mouse model carrying a missense LMNA mutation and developing a dilated cardiomyopathy; type: in vivo; conditions: oral treatment, mouse model with missense LMNA mutation

CC(=O)N[C@@H](CS)C(=O)O [NAC, N-acetylcysteine]
incidence of postoperative atrial fibrillation (AF) ([1]; intravenous infusion for 1 h before and 48 h after cardiac surgery, Ozaydin et al. 2008): decreased the incidence of postoperative atrial fibrillation | post-operative atrial fibrillation ([1]; oral NAC treatment, patients): prevents post-operative atrial fibrillation | cardiac structure and function [2]: improves cardiac structure and function | established hypertrophy [3]: reverses established hypertrophy | cardiac structure and function [4]: improves cardiac structure and function | heart structure and function [5]: significantly improved heart structure and function
